The text below walks through data of paper PMC13266999, “Designing Antibiotics with Inherent Resistance to Efflux as a Strategy to Revive Discovery against Multidrug-Resistant Pathogens” (Journal of Medicinal Chemistry, 2026).

In brackets after ≈: the same amount, converted by molar mass. Like-named read-outs stand apart in the source and are kept apart here.

The test system of one series is S. haemolyticus. In words: MIC (microbroth dilution). The format is cell-based, Staphylococcus haemolyticus. To be noted: Staphylococcus haemolyticus, ATCC29970; ATCC 29970; read-out: MIC. The procedure: (§1) All bacteria were maintained on tryptic soy agar (TSA), except Streptococcus spp., which were maintained on Columbia agar plates containing 5% horse blood. All bacterial assays were carried out in tryptic soy broth (TSB), except for Streptococcus spp. which were grown in cation-adjusted Mueller Hinton broth containing 2.5% lysed horse blood. Bacteria were grown to stationary phase in liquid culture overnight, with shaking at 200 rpm, before being back diluted to the relevant starting concentration for each assay below. MICs were measured by the microbroth dilution method. […] Absorbance at OD600 was read on a CLARIOstar spectrophotometer (BMG Labtech) and the MIC was defined as the minimum concentration of compound where no visible growth was detected. The compounds were prepared as a DMSO stock and equivalent concentrations of DMSO had no effect on bacterial growth. MICs were also performed in the presence of the outer membrane permeator, polymyxin b nonapeptide (PMBN) following the same MIC method but with the following variation. The 2-fold dilution series of compound was prepared as above, then 50 μL of PMBN at a final concentration of 30 μg/mL was added to relevant wells, while 50 μL/well of blank media was added to the remaining wells. Bacteria were then added at 50 μL/well for a starting concentration as above. Thirty μg/mL of PMBN had no effect on bacterial growth. The MICs were read and defined as above. All animal procedures were performed by the contract research organization Pharmacology Discovery Services Taiwan in accordance with the Guide for the Care and Use of Laboratory Animals. The procedures were approved by the Institutional Ethics Committee of Pharmacology Discovery Services Taiwan, Ltd. (approval no. AB127662), in compliance with animal welfare legislation in Taiwan.

In series [1] the test system is Staphylococcus epidermidis, S. hemolyticus and S. saprophyticus. The experiment in a line: MIC, extended Gram-positive panel (grouped species). The format is cell-based, Staphylococcus spp. The procedure:
as §1, with “Thirty μg/mL of PMBN had no effect on bacterial growth.” left out, “All animal procedures were performed by the contract research organization Pharmacology Discovery Services Taiwan in accordance with the Guide for the Care and Use of Laboratory Animals. The procedures were approved by the Institutional Ethics Committee of Pharmacology Discovery Services Taiwan, Ltd. (approval no. AB127662), in compliance with animal welfare legislation in Taiwan.” left out

Series [2] relates to S. oralis, S. mutans, S. salivarius, S. sanguinis, and S. pyogenes. Described as above. Format: cell-based, Streptococcus spp. The procedure: as §1, with “Thirty μg/mL of PMBN had no effect on bacterial growth.” left out, “All animal procedures were performed by the contract research organization Pharmacology Discovery Services Taiwan in accordance with the Guide for the Care and Use of Laboratory Animals. The procedures were approved by the Institutional Ethics Committee of Pharmacology Discovery Services Taiwan, Ltd. (approval no. AB127662), in compliance with animal welfare legislation in Taiwan.” left out

The next series concerns Streptococcus salivarius. The experiment in a line: MIC (microbroth dilution). The format is cell-based. To be noted: ATCC13419, ATCC 13419. The method, boiled down:
(§2)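 Overnight stationary-phase bacteria were back-diluted and tested by broth microdilution, Streptococcus spp. in cation-adjusted Mueller Hinton broth plus 2.5% lysed horse blood, other species in tryptic soy broth. Some wells also received polymyxin B nonapeptide at 30 μg/mL final. Growth checked visually with OD600; MIC = minimum concentration showing no growth.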

In the next series the test system is Streptococcus mutans. In words: MIC (microbroth dilution). To be noted: ATCC25175, ATCC 25175. Format: cell-based. The method, boiled down:
as §2
A general note: Broth dilution looks for growth in wells or tubes with falling amounts of substance.

A further series deals with Enterococcus gallinarum. The experiment in a line: MIC (microbroth dilution). The format is cell-based. To be noted: VanC (ATCC 49608). The method, boiled down: as §2
For series [3], the system named is Streptococcus intermedius. The experiment in a line: MIC (microbroth dilution). Format: cell-based. To be noted: ATCC29663, ATCC 29663. The gist of the method: as §2
For another series, the system named is Streptococcus pneumoniae. The experiment in a line: MIC (microbroth dilution). The format is cell-based. To be noted: for MIC: Streptococcus pneumoniae. The gist of the method: as §2
The next series has as its system Streptococcus sanguinis. In words: MIC (microbroth dilution). To be noted: ATCC10556, ATCC 10556. Format: cell-based. The gist of the method:
as §2

The subject of another series is Streptococcus oralis. In words: MIC (microbroth dilution). Format: cell-based. To be noted: ATCC9811, ATCC 9811. The method, boiled down:
as §2

In series [4] the test system is Staphylococcus saprophyticus. The experiment in a line: MIC (microbroth dilution). Format: cell-based. To be noted: ATCC15305, ATCC 15305. The method, boiled down: as §2
A further series deals with A. baumannii. In words: A. baumannii efflux chequerboard assay. Format: cell-based, Acinetobacter baumannii. To be noted: for MIC: Acinetobacter baumannii. As for the experimental part: Checkerboard assays were performed by preparing two separate 2-fold dilution series of compounds in two 96 well plates, one horizontally, one vertically. […] Plates were incubated at 37 C for 20 h and the absorbance (OD600) was read on a CLARIOstar spectrophotometer (BMG Labtech). The fractional inhibitory concentration was calculated as follows: ΣFIC = [(MIC of A in combination)/(MIC of A alone)] + [(MIC of B in combination)/(MIC of B alone)].

The conditions of series [5]: reported values; cited from earlier work.

Broadly, the MIC is the least concentration at which growth counts as inhibited. Consider `Cc1cc(C)nc(N[C@@H]2CCN(c3c(F)cc4c(=O)c(C(=O)O)cn5c4c3OC[C@@H]5C)C2)n1` [Compound 50, (S)-10-((R)-3-((4,6-Dimethylpyrimidin-2-yl)amino)pyrrolidin-1-yl)-9-fluoro-3-methyl-7-oxo-2,3-dihydro-7H-[1,4]oxazino[2,3,4-ij]quinoline-6-carboxylic acid], for which the MIC turned out to be 0.03 µg/mL (≈ 0.0662 µM) in the series with S. haemolyticus; 0.25 µg/mL (≈ 0.551 µM) in the series on Streptococcus salivarius; 0.03 µg/mL (≈ 0.0662 µM) with Streptococcus mutans; 0.25 µg/mL (≈ 0.551 µM) with Enterococcus gallinarum (Enterococcus gallinarum, ATCC 49608 / GALLINARUM, read-out: MIC); 0.25 µg/mL (≈ 0.551 µM) with Enterococcus gallinarum; 0.03 µg/mL (≈ 0.0662 µM) in series [3]. For the same molecule, the MIC turned out to be 0.125 µg/mL (≈ 0.276 µM) in the series with Streptococcus pneumoniae (ATCC6301); 0.125 µg/mL (≈ 0.276 µM) against Streptococcus pneumoniae (ATCC49619); 0.125 µg/mL (≈ 0.276 µM) in the series on Streptococcus pneumoniae (ATCC51916); 0.06 µg/mL (≈ 0.132 µM) with Streptococcus pneumoniae (ATCC700669, ST 23F (ATCC 700669), read-out: MIC); 0.06 µg/mL (≈ 0.132 µM) with Streptococcus pneumoniae (ATCC700673, MDR (ATCC 700673), read-out: MIC); 0.06 µg/mL (≈ 0.132 µM) with Streptococcus pneumoniae (ATCC700675, ATCC 700675, read-out: MIC). The MIC in the series with Streptococcus pneumoniae (ATCC700676) worked out at 0.125 µg/mL (≈ 0.276 µM); in the series with Streptococcus pneumoniae (ATCC 700677 / PRSP, PRSP (ATCC 700677), read-out: MIC), 0.06 µg/mL (≈ 0.132 µM); in the series on Streptococcus pneumoniae (PRSP (TM532), read-out: MIC), 0.06 µg/mL (≈ 0.132 µM); in the series on Streptococcus sanguinis it was 0.25 µg/mL (≈ 0.551 µM); in the series on Streptococcus oralis, 0.25 µg/mL (≈ 0.551 µM); in series [4] it was 0.06 µg/mL (≈ 0.132 µM). In addition, the “MIC range” value in series [1] is 0.03125 to 0.06 µg/mL; in series [2], 0.03 to 0.25 µg/mL; against Streptococcus pneumoniae (including MDR and PRSP strains), 0.06 to 0.125 µg/mL.
Take `C[C@H]1COc2c(N3CCN(C)CC3)c(F)cc3c(=O)c(C(=O)O)cn1c23` [Levofloxacin, (S)-9-Fluoro-3-methyl-10-(4-methylpiperazin-1-yl)-7-oxo-2,3-dihydro-7H-[1,4]oxazino[2,3,4-ij]quinoline-6-carboxylic acid, reference compound]: the “MIC +50 (0.25x MIC)” value with A. baumannii (A. baumannii ATCC 17978) was 0.007 to 0.06 µg/mL; in the series on A. baumannii (A. baumannii AYE) it was 0.014 to 1.88 µg/mL. For the same molecule, the “MIC +50 (0.5x MIC)” value in the series with A. baumannii (A. baumannii ATCC 17978) fell in the range of 0.009 to 0.06 µg/mL; in the series on A. baumannii (A. baumannii AYE) it was 0.012 to 0.9 µg/mL. For the same molecule, the MIC with A. baumannii (ATCC17978, read-out: MIC alone) amounted to 0.125 µg/mL; in the series with A. baumannii (read-out: MIC alone), 4 µg/mL. Moreover, the plasma protein binding in series [5] is recorded as 38%.
